Measurements published in patent publication US9492422B2, “Therapeutic or prophylactic agent for diabetes” (Toray Industries, Inc., priority 2009, dated 2016).
Counter-ions that a name gives are not always drawn.

Key:
Format in all cases: in vivo
[1] = tested on: KKAy mice; assay: Casual blood glucose level before and after drug administration in KKAy mice; details: male KKAy mice; for Casual blood glucose level, After administration: about 18 hours after final administration; for Casual blood glucose level, After administration / Casual blood glucose level, Before administration: mean ± standard error; for Casual blood glucose level, Before administration: baseline, day before start of dosing
Text: (§1) For the experiment, male KKAy mice (CLEA Japan, Inc.) were used. KKAy mice show obesity and high blood glucose from 7 or 8 weeks old, and are commonly used as model mice for type 2 diabetes. The KKAy mice were purchased when they were 5 weeks old, and, from immediately thereafter, fed with CMF feed (Oriental Yeast Co., Ltd.) for 3 weeks under free food/water intake conditions, before being subjected to the experiment. For continuous subcutaneous administration of a solvent (physiological saline, 6 μL/day) or BPS (1 mg/kg/day, commercially available product from Toray Industries, Inc.), a minipump for sustained release (Alzet micro osmotic pump model 1002, Alzet osmotic pumps company) was subcutaneously placed in each KKAy mouse. The continuous administration of physiological saline or BPS was carried out until the end of the experiment. From 3 days after the placement (beginning of the subcutaneous continuous administration), oral administration of a solvent (0.5% methyl cellulose (MC) solution, 10 mL/kg) or pioglitazone hydrochloride (product synthesized in Toray Industries, Inc.) was started. Pioglitazone hydrochloride was administered as a suspension in 0.5% MC solution. The 0.5% MC solution and pioglitazone hydrochloride were administered for 10 days, during which the administration was carried out once per day in the evening. The mice were divided into the following experimental groups: • (1) Control group (n=8): physiological saline (6 μL/day)+0.5% MC solution (10 mL/kg) • (2) BPS group (n=6): BPS (1 mg/kg/day)+0.5% MC solution (10 mL/kg) • (3) Pioglitazone hydrochloride 3 mg group (n=6): physiological saline (6 μL/day)+pioglitazone hydrochloride (3 mg/kg) • (4) BPS/pioglitazone hydrochloride 3 mg-combined-use group (n=6): BPS (1 mg/kg/day)+pioglitazone hydrochloride (3 mg/kg) • (5) Pioglitazone hydrochloride 30 mg group (n=6): physiological saline (6 μL/day)+pioglitazone hydrochloride (30 mg/kg).
(§2) The body weight and the casual blood glucose level were measured on the day before starting of the continuous administration of physiological saline or BPS (these correspond to the data shown in the “Before administration” columns in Tables 1 and 2). The body weight was measured when 0.5% MC solution or pioglitazone hydrochloride was finally administered, and the casual blood glucose level was measured about 18 hours after the final administration (these correspond to the data shown in the “After administration” columns in Tables 1 and 2). The casual blood glucose level was measured by collecting about 5 μL of blood from the tail vein and subjecting the blood to measurement with a simplified blood glucose meter (Medisense Precision Xceed, ABBOTT JAPAN Co., LTD.).

[2] = Body weight before and after drug administration in KKAy mice; details: male KKAy mice; for Body weight, After administration: at final administration; for Body weight, After administration / Body weight, Before administration: mean ± standard error; for Body weight, Before administration: baseline, day before start of dosing; for Change in body weight compared to the value before drug administration: paired t-test
Text: as §1, §2

[3] = tested on: KKAy mice; assay: Glucose tolerance test after drug administration in KKAy mice; details: male KKAy mice; for ΔAUC0-120 (area under the Δblood glucose level-time curve, 0 to 120 minutes): oral glucose 1.5 g/kg after fasting, mean ± standard error, in mg·min/dL (unit assumed)
Description: For the experiment, male KKAy mice (CLEA Japan, Inc.) were used. […] Pioglitazone hydrochloride was administered as a suspension in 0.5% MC solution. […] The continuous administration of physiological saline or BPS was carried out until the end of the experiment. The experimental groups were as follows: • (1) Control group (n=6): physiological saline (6 μL/day)+0.5% MC solution (10 mL/kg) • (2) BPS group (n=5): BPS (1 mg/kg/day)+0.5% MC solution (10 mL/kg) • (3) Pioglitazone hydrochloride 3 mg group (n=5): physiological saline (6 μL/day)+pioglitazone hydrochloride (3 mg/kg) • (4) BPS/pioglitazone hydrochloride 3 mg-combined-use group (n=6): BPS (1 mg/kg/day)+pioglitazone hydrochloride (3 mg/kg) • (5) Pioglitazone hydrochloride 30 mg group (n=6): physiological saline (6 μL/day)+pioglitazone hydrochloride (30 mg/kg). […] The increase in the blood glucose level at each timing relative to the blood glucose level observed immediately before the administration of glucose (0 minute) was defined as Δblood glucose level. The length of time (minutes) after the administration of glucose was plotted along the abscissa and Δblood glucose level (mg/dL) was plotted along the ordinate, to calculate the area under the Δblood glucose level-time curve from 0 minute to 120 minutes (ΔAUC0-120).

[4] = BPS 1 mg/kg/day s.c. continuous and/or pioglitazone hydrochloride 3 mg/kg p.o. once daily 10 days
[5] = groups BPS 1 mg/kg/day s.c. continuous and/or pioglitazone hydrochloride 3 mg/kg p.o.
[6] = BPS 1 mg/kg/day s.c. continuous and/or pioglitazone hydrochloride 3 mg/kg p.o. once daily 20 days
[7] = pioglitazone hydrochloride 30 mg/kg group
[8] = pioglitazone hydrochloride 30 mg/kg p.o. once daily 10 days

| SMILES | Change in casual blood glucose level compared to the value before drug administration ([1]; BPS 1 mg/kg/day s.c. and/or pioglitazone hydrochloride 3 mg/kg p.o., paired t-test) | Casual blood glucose level, After administration [1, 4] | Casual blood glucose level, Before administration [1, 5] | Body weight, After administration [2, 4] | Body weight, Before administration [2, 5] | Change in ΔAUC0-120 compared to the control group ([3]; glucose tolerance test, BPS 1 mg/kg/day s.c. and/or pioglitazone hydrochloride 3 mg/kg p.o.) | ΔAUC0-120 (area under the Δblood glucose level-time curve, 0 to 120 minutes) [3, 6] | Casual blood glucose level, Before administration [1, 7] | Casual blood glucose level, After administration [1, 8] | Change in body weight compared to the value before drug administration ([2]; BPS 1 mg/kg/day s.c. and/or pioglitazone hydrochloride 3 mg/kg p.o.) | Body weight, Before administration [2, 7] | Body weight, After administration [2, 8] | Change in body weight compared to the value before drug administration ([2]; pioglitazone hydrochloride 30 mg/kg p.o.) | ΔAUC0-120 (area under the Δblood glucose level-time curve, 0 to 120 minutes) ([3]; pioglitazone hydrochloride 30 mg/kg p.o. once daily 20 days) |
| --- | --- | --- | --- | --- | --- | --- | --- | --- | --- | --- | --- | --- | --- | --- |
| CC#CCC(C)[C@H](O)/C=C/[C@@H]1[C@H]2c3cccc(CCCC(=O)O)c3O[C@H]2C[C@H]1O (mixture of isomers) [BPS, beraprost sodium] | no change | 392.3 ± 28.9 mg/dL | 493.0 ± 35.6 mg/dL | 42.3 ± 1.1 g | 41.2 ± 0.8 g | no change | 18684 ± 3551 |  |  |  |  |  |  |  |
| CCc1ccc(CCOc2ccc(CC3SC(=O)NC3=O)cc2)nc1 (stereo not shown) [Pioglitazone hydrochloride, pioglitazone hydrochloride] |  | 452.8 ± 53.4 mg/dL | 450.3 ± 15.4 mg/dL | 44.2 ± 1.3 g | 41.7 ± 1.2 g |  | 23138 ± 4870 | 437.7 ± 21.7 mg/dL | 271.3 ± 16.9 mg/dL | significant increase | 42.6 ± 1.1 g | 46.7 ± 1.3 g | significant increase | 22461 ± 2157 |
